For one series, the system named is human platelets. The series is described as follows: Platelet aggregation of human citrated platelet-rich plasma induced by arachidonic acid (turbidimetric). It is filed as cell-based. The following applies: for inhibition at 100 µM: healthy human platelets, read-out: Inhibition of AA-induced platelet aggregation; for Antiplatelet activity (in words): AA-induced platelet aggregation. Here is the method: The human blood samples were obtained from adult volunteers, who abstained from the use of drugs or other substances that could interfere with the experiment for at least 15 days prior. […] The platelet rich (PRP) and poor (PPP) plasma were prepared by differential centrifugation and platelet aggregation was monitored using the turbidimetric method described by Born and Cross with an aggregometer 4-Pack® (Helena Laboratories, Beaumount, TX, USA). Different concentrations of the synthetic derivatives and the vehicle (DMSO 1%) were pre-incubated for 2 min before addition of the agonists (500 μM arachidonic acid and 5 μg/mL collagen). The platelet aggregation tests were performed in triplicate and the data were statistically analyzed.

A further series relates to Salmonella typhimurium. The series is described as follows: Reverse mutagenesis to histidine prototrophy (Ames test), spot test. The following applies: without metabolic activation; 10 µM, 100 µM and 500 µM. Here is the method:
This assay was performed as described by Maron and Ames, using the histidine Salmonella typhimurium auxotroph mutant strains TA97, TA98, TA100 and the […] TA102 (Table 5).

Another series concerns PGE2 production. The series is described as follows: Measurement of plasma PGE2 levels by EIA in platelet-rich plasma. The series is classed as cell-based. The following applies: human platelet-rich plasma. Here is the method: The stable direct metabolite of PGE2, 13,14-dihydro-15-keto-Prostaglandin E2, is a known marker of the COX-1 activity. By the measurement of total levels of this PGE2 metabolite in human platelet-rich plasma, we evaluated the feasibility of antiplatelet N,N'-disubstituted thioureas to inhibit COX-1 activity in healthy platelets (Table 2).
Plasma samples containing 100 μM of each thiourea with antiplatelet activity were used to determine the concentrations of […], an index of in vitro COX-1 activity. Briefly, ozagrel (3 μL, 100 μM) were added to stop TXS activity and the aggregation were triggered with 10 μL of arachidonic acid (500 μM) in PRP samples containing each active derivative (100 μM) under stir conditions. After five minutes the suspensions were mixed with indomethacin (3 μL, 10 mM) stop-solution. By sonication for 1 min, platelets were disrupted and purification step were performed according to the manufacturer’s instructions (Cayman Chemical Co.). Plasma levels of PGE2 were measured in duplicate by competitive immunoassay using commercially available kits for EIA (PGE2 EIA Kit, Cayman Chemical Co.) according to the manufacturer’s instructions. A threshold of 25.75 ng/mL was defined as control plasma levels of PGE2 after platelet disrupture.

For the next series, the system named is TXB2 production. The series is described as follows: Measurement of plasma TXB2 levels by EIA in platelet-rich plasma. It is filed as cell-based. Particulars: for inhibition at 100 µM: Homo sapiens, Platelet. Here is the method: Thromboxane B2 (TXB2), a stable TXA2 metabolite, is widely used as a prognostic risk marker of platelet activation in cardiovascular disease, which is closely related to COX-1 and Thromboxane Synthetase activity. Thus, the plasma levels of this metabolite were measured using an enzyme immunoassay (EIA) as described in the Experimental Section.
Plasma samples containing 100 μM of each thiourea with antiplatelet activity were used to determine the concentrations of thromboxane B2, an index of in vitro COX-1 activity. Briefly, 10 μL of arachidonic acid (500 μM) were added to platelet-rich plasma samples containing each active derivative (100 μM) under stir conditions. After five minutes the suspensions were mixed with 3 μL Indomethacin (10 mM) stop-solution. By sonication for 15 min, platelets were disrupted, and the resulting homogenates were centrifuged at 2000 g for 10 min to allow complete release of TXB2. Plasma levels of TXB2 were measured in duplicate by competitive immunoassay using commercially available kits from EIA Cayman (TXB2 EIA Kit, Cayman Chemical Co, Ann Arbor, MI, USA) according to the manufacturer’s instructions. A threshold of 25.75 ng/mL was defined as control plasma levels of TXB2 after platelet disrupture.

[1] abbreviates: Homo sapiens, Platelet, read-out: IC50, concentration that caused 50% inhibition of platelet aggregation, arachidonic acid-induced (500 μM), human platelet-rich plasma.
The mark [2] stands for this setting: read-out: IC50, concentration that caused 50% inhibition of platelet aggregation, arachidonic acid-induced (500 μM), human platelet-rich plasma.

Read-outs that look alike come from different tables or passages of the source.

Regarding `CNC(=S)Nc1ccccc1` [3a, N-Methyl-N'-phenylthiourea], in the series on human platelets (setting [1]), the IC50 stood at 308 ± 10.4 µM. In addition, in the series on Salmonella typhimurium, the “Ames Test S. typhimurium TA97” value is listed as “-”, the “Ames Test S. typhimurium TA98” value is “-”, the “Ames Test S. typhimurium TA100” value was “-” and the “Ames Test S. typhimurium TA102” value was “-”.

Compound `S=C(Nc1ccccc1)NC1CCCCC1` [3b, N-Cyclohexyl-N'-phenylthiourea] yielded a melting point of 149 to 151 °C. In addition, the IC50 in the series with human platelets (setting [1]) amounted to 153 ± 4.5 µM. Also, in the series on Salmonella typhimurium, the “Ames Test S. typhimurium TA97” value is given as “-”, the “Ames Test S. typhimurium TA98” value is given as “-”, the “Ames Test S. typhimurium TA100” value was “-” and the “Ames Test S. typhimurium TA102” value is recorded as “-”.

As to `OCCNC(=S)Nc1ccccc1` [3c, N-(2-Hydroxyethyl)-N'-phenylthiourea], the melting point lay within 139 to 141 °C. The IC50 in the series on human platelets (setting [1]) was found to be 170 ± 17.3 µM. In the series with Salmonella typhimurium, the “Ames Test S. typhimurium TA97” value is “-”, the “Ames Test S. typhimurium TA98” value is recorded as “-”, the “Ames Test S. typhimurium TA100” value is recorded as “-” and the “Ames Test S. typhimurium TA102” value is reported as “-”.

`CCN(CC)C(=S)Nc1ccccc1` [3d, N-N-Diethyl-N'-phenylthiourea]: the IC50 with human platelets (setting [1]) came to 29.1 µM. Also, the inhibition at 100 µM with human platelets (Platelet) lay in the range of 96 to 98%. For the same compound, 100 µM produced 25.6 ± 5.9% inhibition with PGE2 production. This compound also registered an inhibition at 100 µM in the series with TXB2 production of 74.2 ± 10.2%. In the series on Salmonella typhimurium, the “Ames Test S. typhimurium TA97” value is recorded as “-”, the “Ames Test S. typhimurium TA98” value is recorded as “-”, the “Ames Test S. typhimurium TA100” value is “-” and the “Ames Test S. typhimurium TA102” value is reported as “-”.

Turning to `COc1cc(NC(=S)Nc2ccccc2)cc(OC)c1OC` [3e, N-Phenyl-N'-(3,4,5-trimethoxyphenyl)thiourea], the melting point lay in the range of 164 to 166 °C. For the same compound, the “Antiplatelet activity (in words)” value with human platelets is on record as “lack antiplatelet activity”. The IC50 with human platelets (setting [1]) came to 251 ± 3.5 µM. In addition, in the series on Salmonella typhimurium, the “Ames Test S. typhimurium TA97” value was “-”, the “Ames Test S. typhimurium TA98” value is listed as “-”, the “Ames Test S. typhimurium TA100” value is recorded as “-” and the “Ames Test S. typhimurium TA102” value was “-”.

In the case of `S=C(Nc1ccccc1)Nc1ccc2c(c1)OCO2` [3f, N-3,4-Methylenedioxyphenyl-N'-phenylthiourea], the melting point lay within 140 to 142 °C. In addition, the “Antiplatelet activity (in words)” value in the series on human platelets is given as “lack antiplatelet activity”. Besides, in the series on human platelets (setting [1]), the IC50 worked out at 322 ± 8.9 µM. For the same compound, in the series with Salmonella typhimurium, the “Ames Test S. typhimurium TA97” value is recorded as “-”, the “Ames Test S. typhimurium TA98” value is “-”, the “Ames Test S. typhimurium TA100” value is listed as “-” and the “Ames Test S. typhimurium TA102” value is reported as “-”.

On to `S=C(Nc1ccccc1)Nc1cccc2ccccc12` [3g, N-α-Naphthyl-N'-phenylthiourea], for which, in the series on human platelets (setting [2]), the IC50 came to 142 ± 9 µM. Moreover, in the series with Salmonella typhimurium, the “Ames Test S. typhimurium TA97” value is reported as “-”, the “Ames Test S. typhimurium TA98” value is recorded as “-”, the “Ames Test S. typhimurium TA100” value is listed as “-” and the “Ames Test S. typhimurium TA102” value is “-”.

For the compound `CC(C)NC(=S)NCc1ccccc1` [3h, N-Benzyl-N'-isopropylthiourea], the melting point lay in the range of 121 to 123 °C. Moreover, the IC50 in the series with human platelets (setting [1]) turned out to be 214 ± 10.2 µM. For the same compound, in the series with Salmonella typhimurium, the “Ames Test S. typhimurium TA97” value is “-”, the “Ames Test S. typhimurium TA98” value is listed as “-”, the “Ames Test S. typhimurium TA100” value is on record as “-” and the “Ames Test S. typhimurium TA102” value is “-”.

Regarding `CCN(CC)C(=S)NCc1ccccc1` [3i, N-Benzyl-N',N'-diethylthiourea], the inhibition at 100 µM in the series on human platelets (Platelet) lay in the range of 96 to 98%. In the series on human platelets (setting [2]), the IC50 amounted to 86.2 µM. Moreover, 100 µM produced 21.1 ± 5% inhibition with PGE2 production. The compound further registered an inhibition at 100 µM in the series on TXB2 production of 74.7 ± 5.5%. For the same compound, in the series with Salmonella typhimurium, the “Ames Test S. typhimurium TA97” value is listed as “-”, the “Ames Test S. typhimurium TA98” value is “-”, the “Ames Test S. typhimurium TA100” value is given as “-” and the “Ames Test S. typhimurium TA102” value is “-”.

Turning to `S=C(NCc1ccccc1)Nc1ccc2c(c1)OCO2` [3j, N-Benzyl-N'-(3,4-methylenedioxyphenyl)thiourea], the melting point was in the range of 114 to 116 °C. The IC50 with human platelets (setting [1]) worked out at 155 ± 3.6 µM. Moreover, in the series with Salmonella typhimurium, the “Ames Test S. typhimurium TA97” value is recorded as “-”, the “Ames Test S. typhimurium TA98” value is reported as “-”, the “Ames Test S. typhimurium TA100” value is recorded as “-” and the “Ames Test S. typhimurium TA102” value is listed as “-”.

`CC(C)NC(=S)NCCc1ccccc1` [3k, N-Isopropyl-N'-(2-phenethyl)thiourea] yielded a melting point of 126 to 128 °C. Also, in the series on human platelets (setting [1]), the IC50 worked out at 188 ± 10.7 µM. In addition, in the series with Salmonella typhimurium, the “Ames Test S. typhimurium TA97” value is “-”, the “Ames Test S. typhimurium TA98” value is listed as “-”, the “Ames Test S. typhimurium TA100” value is “-” and the “Ames Test S. typhimurium TA102” value is given as “-”.

For `CCCCNC(=S)NCCc1ccccc1` [3l, N-Butyl-N'-(2-phenethyl)thiourea], the melting point lay in the range of 61 to 63 °C. In addition, the IC50 in the series with human platelets (setting [1]) was found to be 153 ± 15 µM. In addition, in the series with Salmonella typhimurium, the “Ames Test S. typhimurium TA97” value was “-”, the “Ames Test S. typhimurium TA98” value is “-”, the “Ames Test S. typhimurium TA100” value was “-” and the “Ames Test S. typhimurium TA102” value is “-”.

Take `CCN(CC)C(S)=NCCc1ccccc1` [3m, N,N-diethyl-N'-(2-phenethyl)thiourea]: the melting point lay within 72 to 74 °C. The IC50 with human platelets (setting [1]) was 34.5 µM. Moreover, the inhibition at 100 µM with human platelets (Platelet) was in the range of 96 to 98%. Besides, in the series on human platelets (setting [2]), the IC50 is 34.5 ± 0.9 µM. Further, in the series with PGE2 production, the inhibition at 100 µM was found to be 28.2 ± 5.9%. The “Platelet Inhibition of TXB2 (%)” value with TXB2 production (100 µM, human platelet-rich plasma) is 91.2 ± 0.0%. The same compound gave an inhibition at 100 µM in the series on TXB2 production of 91%. In the series on Salmonella typhimurium, the “Ames Test S. typhimurium TA97” value is “-”, the “Ames Test S. typhimurium TA98” value was “-”, the “Ames Test S. typhimurium TA100” value was “-” and the “Ames Test S. typhimurium TA102” value was “-”.

`S=C(NCCc1ccccc1)NC1CCCCC1` [3n, N-Cyclohexyl-N'-(2-phenethyl)thiourea] showed a melting point of 109 to 111 °C. Moreover, in the series on human platelets (setting [1]), the IC50 came out at 277 ± 42.9 µM. In the series on Salmonella typhimurium, the “Ames Test S. typhimurium TA97” value was “-”, the “Ames Test S. typhimurium TA98” value is recorded as “-”, the “Ames Test S. typhimurium TA100” value is given as “-” and the “Ames Test S. typhimurium TA102” value is on record as “-”.

On to `S=C(NCCc1ccccc1)Nc1cccc2ccccc12` [3o, N-(α-Naphthyl)-N'-(2-phenethyl)thiourea], for which the melting point fell in the range of 155 to 157 °C. Also, the IC50 in the series on human platelets (setting [1]) was determined as 157 ± 19.9 µM. Further, in the series on Salmonella typhimurium, the “Ames Test S. typhimurium TA97” value is recorded as “-”, the “Ames Test S. typhimurium TA98” value is “-”, the “Ames Test S. typhimurium TA100” value was “-” and the “Ames Test S. typhimurium TA102” value is “-”.

Compound `COc1cc(NC(=S)Nc2ccc3c(c2)OCO3)cc(OC)c1OC` [3q, N-(3,4-Methylenedioxyphenyl)-N'-(3,4,5-trimethoxyphenyl)thiourea] had a melting point of 142 to 144 °C. The “Antiplatelet activity (in words)” value with human platelets is listed as “lack antiplatelet activity”. Also, the IC50 in the series with human platelets (setting [1]) was 290 ± 21.9 µM. In addition, in the series on Salmonella typhimurium, the “Ames Test S. typhimurium TA97” value is “-”, the “Ames Test S. typhimurium TA98” value is “-”, the “Ames Test S. typhimurium TA100” value is “-” and the “Ames Test S. typhimurium TA102” value is listed as “-”.

`COc1ccc2c(c1)c(CC(=O)O)c(C)n2C(=O)c1ccc(Cl)cc1` [Indomethacin, reference compound]: the inhibition at 100 µM with PGE2 production is 28 ± 1.6%; with TXB2 production, 99.8%.

As to `O=C(O)/C=C/c1ccc(Cn2ccnc2)cc1` [Ozagrel, reference compound], in the series on TXB2 production, 100 µM produced 98 ± 2.8% inhibition.

These data come from PMC6272548, “Synthesis and Antiplatelet Activity of Antithrombotic Thiourea Compounds: Biological and Structure-Activity Relationship Studies” (Molecules, 2015).
